Data: PubChem BioAssay (NCI)
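A five-concentration, 48-hour dose response in 96-well plates underlies each endpoint, interpolated linearly between surrounding concentrations. Abbreviation: GI50, concentration required for 50% inhibition of growth. TGI marks complete inhibition of growth.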 *1 amine or outer side, *2 acyl side, *3 side chain or, on linkers, in order; H or OH if unused. Where a SMILES comes first, the peptide text is derived from it. [ ]: non-standard residue; d: D form. ξ: configuration not given here. X21 = CC[C@@H](C)C(N[*:1])C(=O)[*:2]; ξR = N=C(N)NCCCC(N)C(=O)O; ξI = CCC(C)C(N)C(=O)O; ξL = CC(C)CC(N)C(=O)O; ξK = NCCCCC(N)C(=O)O; ξV = CC(C)C(N)C(=O)O; ξA = CC(N)C(=O)O

Columns and labels:
Experiment in all cases: inhibition of tumour cell growth, NCI panel, 48 h
IGROV1 ovarian = test system: IGROV1 ovarian
HOP-62 NSCLC = test system: HOP-62 NSCLC
K-562 leukemia = test system: K-562 leukemia
UACC-62 melanoma = test system: UACC-62 melanoma
PC-3 prostate = test system: PC-3 prostate
OVCAR-3 ovarian = test system: OVCAR-3 ovarian
U251 CNS = test system: U251 CNS
SF-268 CNS = test system: SF-268 CNS
786-0 renal = test system: 786-0 renal
OVCAR-5 ovarian = test system: OVCAR-5 ovarian
SK-MEL-5 melanoma = test system: SK-MEL-5 melanoma
LOX IMVI melanoma = test system: LOX IMVI melanoma
NCI-H460 lung = test system: NCI-H460 lung
A498 renal = test system: A498 renal
TK-10 renal = test system: TK-10 renal
HCC-2998 colon = test system: HCC-2998 colon
SF-295 CNS = test system: SF-295 CNS
DU-145 prostate = test system: DU-145 prostate
UACC-257 melanoma = test system: UACC-257 melanoma
SNB-75 CNS = test system: SNB-75 CNS
HOP-92 NSCLC = test system: HOP-92 NSCLC
NCI-H226 lung = test system: NCI-H226 lung
SNB-19 CNS = test system: SNB-19 CNS
NCI-H23 lung = test system: NCI-H23 lung
COLO 205 colon = test system: COLO 205 colon
HCT-116 colon = test system: HCT-116 colon
ACHN renal = test system: ACHN renal
OVCAR-8 ovarian = test system: OVCAR-8 ovarian
SK-MEL-2 melanoma = test system: SK-MEL-2 melanoma
M14 melanoma = test system: M14 melanoma
T-47D breast = test system: T-47D breast
CAKI-1 renal = test system: CAKI-1 renal
SR leukemia = test system: SR leukemia
MCF7 breast = test system: MCF7 breast
EKVX NSCLC = test system: EKVX NSCLC
MDA-MB-468 breast = test system: MDA-MB-468 breast
UO-31 renal = test system: UO-31 renal
HL-60(TB) leukemia = test system: HL-60(TB) leukemia
SW-620 colon = test system: SW-620 colon
HT29 colon = test system: HT29 colon
RXF 393 renal = test system: RXF 393 renal
A549 NSCLC = test system: A549 NSCLC
SK-OV-3 ovarian = test system: SK-OV-3 ovarian
SN12C renal = test system: SN12C renal
MDA-MB-231 breast = test system: MDA-MB-231 breast
OVCAR-4 ovarian = test system: OVCAR-4 ovarian
RPMI-8226 leukemia = test system: RPMI-8226 leukemia
NCI-H522 lung = test system: NCI-H522 lung
SK-MEL-28 melanoma = test system: SK-MEL-28 melanoma
CCRF-CEM leukemia = test system: CCRF-CEM leukemia
MALME-3M melanoma = test system: MALME-3M melanoma
SF-539 CNS = test system: SF-539 CNS
MDA-MB-435 = test system: MDA-MB-435
KM12 colon = test system: KM12 colon
MOLT-4 leukemia = test system: MOLT-4 leukemia
BT-549 breast = test system: BT-549 breast
NCI/ADR-RES ovarian = test system: NCI/ADR-RES ovarian
HCT-15 colon = test system: HCT-15 colon
HS 578T breast = test system: HS 578T breast

## O=C(Nc1ccc(-c2ccc3c(c2)NC(=O)/C3=C\c2ccc[nH]2)cc1)Nc1ccc(Cl)c(C(F)(F)F)c1
IGROV1 ovarian
  GI50: 4.05 µM
  TGI: 17.4 µM
HOP-62 NSCLC
  GI50: 2090 nM
  TGI: 8.75 µM
K-562 leukemia
  GI50: 2540 nM
  TGI: 11.3 µM
UACC-62 melanoma
  GI50: 2620 nM
  TGI: 12.9 µM
PC-3 prostate
  GI50: 1830 nM
  TGI: 6.69 µM
OVCAR-3 ovarian
  GI50: 1570 nM
  TGI: 3.62 µM
U251 CNS
  GI50: 1640 nM
  TGI: 3.42 µM
SF-268 CNS
  GI50: 1940 nM
  TGI: 5.09 µM
786-0 renal
  GI50: 3.09 µM
  TGI: 10.2 µM
OVCAR-5 ovarian
  GI50: 2180 nM
  TGI: 10.5 µM
SK-MEL-5 melanoma
  GI50: 5.56 µM
  TGI: 18.8 µM
LOX IMVI melanoma
  GI50: 1730 nM
  TGI: 3.33 µM
NCI-H460 lung
  GI50: 489 nM
  TGI: 1820 nM
A498 renal
  GI50: 2350 nM
  TGI: 9.4 µM
TK-10 renal
  GI50: 1430 nM
  TGI: 7.55 µM
HCC-2998 colon
  GI50: 2180 nM
  TGI: 6.15 µM
SF-295 CNS
  GI50: 2840 nM
  TGI: 10.2 µM
DU-145 prostate
  GI50: 2130 nM
  TGI: 4.99 µM
UACC-257 melanoma
  GI50: 2770 nM
  TGI: 9.01 µM
SNB-75 CNS
  GI50: 2640 nM
  TGI: 17.4 µM
HOP-92 NSCLC
  GI50: 1230 nM
  TGI: 4.69 µM
NCI-H226 lung
  GI50: 1330 nM
  TGI: 11.4 µM
SNB-19 CNS
  GI50: 3.6 µM
  TGI: 15.5 µM
NCI-H23 lung
  GI50: 1120 nM
  TGI: 3.12 µM
COLO 205 colon
  GI50: 2820 nM
  TGI: 10.9 µM
HCT-116 colon
  GI50: 1780 nM
  TGI: 3.46 µM
ACHN renal
  GI50: 3000 nM
  TGI: 9.6 µM
OVCAR-8 ovarian
  GI50: 2170 nM
  TGI: 5.38 µM
SK-MEL-2 melanoma
  GI50: 3.48 µM
  TGI: 14.2 µM
M14 melanoma
  GI50: 3.47 µM
  TGI: 14.4 µM
T-47D breast
  GI50: 290 nM
  TGI: 4.12 µM
CAKI-1 renal
  GI50: 2920 nM
  TGI: 12.9 µM
SR leukemia
  GI50: 2130 nM
  TGI: 7.01 µM
MCF7 breast
  GI50: 180 nM
  TGI: 1630 nM
EKVX NSCLC
  GI50: 243 nM
  TGI: 6.38 µM
MDA-MB-468 breast
  GI50: 33 nM
  TGI: 0.322 µM
UO-31 renal
  GI50: 1750 nM
  TGI: 14.3 µM
HL-60(TB) leukemia
  GI50: 3.27 µM
  TGI: 15 µM
SW-620 colon
  GI50: 1880 nM
  TGI: 3.89 µM
HT29 colon
  GI50: 2560 nM
  TGI: 7.71 µM
RXF 393 renal
  GI50: 2250 nM
  TGI: 5.34 µM
A549 NSCLC
  GI50: 1560 nM
  TGI: 3.56 µM
SK-OV-3 ovarian
  GI50: 2560 nM
  TGI: 13.9 µM
SN12C renal
  GI50: 1710 nM
  TGI: 3.53 µM
MDA-MB-231 breast
  GI50: 2230 nM
  TGI: 10.1 µM
OVCAR-4 ovarian
  GI50: 1240 nM
  TGI: 8.4 µM
RPMI-8226 leukemia
  GI50: 1560 nM
  TGI: 4.98 µM
NCI-H522 lung
  GI50: 1540 nM
  TGI: 3.67 µM
SK-MEL-28 melanoma
  GI50: 3.04 µM
  TGI: 10.2 µM
CCRF-CEM leukemia
  GI50: 2570 nM
  TGI: 9.6 µM
MALME-3M melanoma
  GI50: 3.78 µM
  TGI: 16.4 µM
SF-539 CNS
  GI50: 1820 nM
  TGI: 6.59 µM
MDA-MB-435
  GI50: 2000 nM
  TGI: 4.67 µM
KM12 colon
  GI50: 2240 nM
  TGI: 10.6 µM
MOLT-4 leukemia
  GI50: 2480 nM
  TGI: 11.4 µM
BT-549 breast
  GI50: 2050 nM
  TGI: 6.15 µM
NCI/ADR-RES ovarian
  GI50: 2930 nM
  TGI: 11.1 µM
HCT-15 colon
  GI50: 1600 nM
  TGI: 4.04 µM
HS 578T breast
  GI50: 2640 nM
  TGI: 16.1 µM

## Oc1ccc(C#CCOc2ccccc2)cc1CNCCN(Cc1ccccn1)Cc1ccccn1
MDA-MB-468 breast
  GI50: 1730 nM
  TGI: 4.17 µM

## CCC(C)C1NC(=O)C(CC(C)C)NC(=O)C(C)NC(=O)C(C(C)C)NC(=O)C(CCCCN)NC(=O)C(CC(C)C)NC(=O)C(C(C)C)NC(=O)[C@H](C)NC(=O)C(C(C)CC)NC(=O)C(CCCN=C(N)N)NC(=O)C(CCCCN)NC(=O)C(CCCN=C(N)N)NC(=O)C(CCCCN)NC(=O)C([C@H](C)CC)NC(=O)C(CCCCN)NC1=O (stereo partly drawn) (cyclo(A[ξV][ξL][ξK][ξV][ξA][ξL][ξI][ξK][X21][ξK][ξR][ξK][ξR][ξI]))
MDA-MB-468 breast
  GI50: 361 nM
  TGI: 1.42 µM

## NC1CCC(N[C@@H]2C[C@H]2c2ccccc2)CC1 (stereo partly drawn)
MDA-MB-468 breast
  GI50: > 100000 nM
  TGI: > 100 µM

## O=C(Nc1cccc(-n2cc(-c3ccncc3)c(-c3ccc(O)c(Cl)c3)n2)c1)Nc1cccc(C(F)(F)F)c1
MDA-MB-468 breast
  GI50: 1850 nM
  TGI: 6.17 µM

## COc1ccc2c(c1)/C(=C/c1cc(OC)c(OC)c(OC)c1)C(=O)N2C
MDA-MB-468 breast
  GI50: 14600 nM
  TGI: > 100 µM
